The test system of this assay is BDF1 mice, P388 leukemia ip, median survival T/C. Kind of assay: NCI In Vivo Anticancer Drug Screen. Data for tumor model P388 Leukemia (intraperitoneal) in B6D2F1 (BDF1) mice. Particulars: endpoint: median survival time, higher = longer survival. The essentials:
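Each value expresses how treatment altered survival: treated-mouse outcome over vehicle-mouse outcome, both groups bearing the transplanted tumour.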

The mark [1] stands for this setting: dose: 12.5 mg/kg/injection, schedule: Q01DX009 (ip), vehicle: saline with Tween-80.
The mark [2] stands for this setting: dose: 50.0 mg/kg/injection, schedule: Q01DX009 (ip), vehicle: Klucel (hydroxypropylcellulose) (HPC).
The mark [3] stands for this setting: dose: 100.0 mg/kg/injection, schedule: Q01DX009 (ip), vehicle: Klucel (hydroxypropylcellulose) (HPC).
Where [4] appears, read: dose: 50.0 mg/kg/injection, schedule: Q01DX009 (ip), vehicle: saline with Tween-80.
Setting [5] is: dose: 100.0 mg/kg/injection, schedule: Q01DX009 (ip), vehicle: saline with Tween-80.
Setting [6] is: dose: 200.0 mg/kg/injection, schedule: Q01DX009 (ip), vehicle: saline with Tween-80.
Setting [7] is: dose: 50.0 mg/kg/injection, schedule: Q01DX009 (ip), vehicle: saline.
Where [8] appears, read: dose: 100.0 mg/kg/injection, schedule: Q01DX009 (ip), vehicle: saline.
Where [9] appears, read: dose: 12.5 mg/kg/injection, schedule: Q01DX009 (ip), vehicle: saline.
The mark [10] stands for this setting: dose: 25.0 mg/kg/injection, schedule: Q01DX009 (ip), vehicle: saline.
Where [11] appears, read: dose: 100.0 mg/kg/injection, schedule: Q04DX003 (ip), vehicle: saline with Tween-80.
[12] abbreviates: dose: 200.0 mg/kg/injection, schedule: Q04DX003 (ip), vehicle: saline with Tween-80.
The mark [13] stands for this setting: dose: 400.0 mg/kg/injection, schedule: Q01DX009 (ip), vehicle: saline with Tween-80.
Where [14] appears, read: dose: 400.0 mg/kg/injection, schedule: Q04DX003 (ip), vehicle: saline with Tween-80.
Where [15] appears, read: dose: 20.0 mg/kg/injection, schedule: Q01DX009 (ip), vehicle: saline.

The results in this text go back to PubChem BioAssay AID328 (DTP/NCI, 2004).

Where “and” joins values, the source holds several entries; their conditions need not be identical. Equal entries are not always repeated. Toxic doses and inconclusive results are not listed.

Turning to `c1ccc2c(c1)ccc1c[n+]3ccccc3cc12`, the T/C by setting is: (dose: 0.25 mg/kg/injection, schedule: Q01DX009 (ip), vehicle: saline) 90 % of control; (dose: 0.5 mg/kg/injection, schedule: Q01DX009 (ip), vehicle: saline) 90 % of control; (dose: 1.0 mg/kg/injection, schedule: Q01DX009 (ip), vehicle: saline) 90 % of control; (dose: 2.0 mg/kg/injection, schedule: Q01DX009 (ip), vehicle: saline) 90 % of control.

On to `Nc1ccc(/C=C/c2ccnc3ccccc23)cc1`, for which the T/C is, setting by setting: (dose: 3.13 mg/kg/injection, schedule: Q04DX003 (ip), vehicle: saline with Tween-80) 109 % of control; (dose: 6.25 mg/kg/injection, schedule: Q04DX003 (ip), vehicle: saline with Tween-80) 109 % of control; under setting [1], 112 % of control; (dose: 12.5 mg/kg/injection, schedule: Q04DX003 (ip), vehicle: saline with Tween-80) 109 % of control; (dose: 25.0 mg/kg/injection, schedule: Q01DX009 (ip), vehicle: saline with Tween-80) 91 % of control.

Turning to `CCCC1CC[N-]CC1.CCCC1CC[N-]CC1.[Cl][Co][Cl]`, the T/C reads like this: (dose: 12.5 mg/kg/injection, schedule: Q01DX009 (ip), vehicle: water) 91 % of control and 100 % of control; (dose: 25.0 mg/kg/injection, schedule: Q01DX009 (ip), vehicle: water) 116 % of control; (dose: 50.0 mg/kg/injection, schedule: Q01DX009 (ip), vehicle: water) 112 % of control; (dose: 50.0 mg/kg/injection, schedule: Q04DX003 (ip), vehicle: water) 120 % of control.

On to `O=C(Nc1cccc(C(F)(F)F)c1)Nc1nccs1`, for which the T/C runs as follows: (dose: 25.0 mg/kg/injection, schedule: Q01DX009 (ip), vehicle: Klucel (hydroxypropylcellulose) (HPC)) 121 % of control; under setting [2], 111 % of control; under setting [3], 102 % of control; (dose: 200.0 mg/kg/injection, schedule: Q01DX009 (ip), vehicle: Klucel (hydroxypropylcellulose) (HPC)) 104 % of control.

For `O=C1C(CCO)SC(=S)N1c1ccccc1` (stereo unspecified), the T/C under setting [4] is 106 % of control, the T/C under setting [5] was 103 % of control and the T/C under setting [6] is 102 % of control.

With `CSc1ccc(C(O)CNC(C)C)cc1C` (stereo unspecified), the T/C under setting [7] is 100 % of control and the T/C under setting [8] was 100 % of control.

On to `OCC1OC(n2ccc3c2ncn2nnnc32)C(O)C1O` (stereo unspecified), for which the T/C is 97 % of control (dose: 6.25 mg/kg/injection, schedule: Q01DX009 (ip), vehicle: saline); 94 % of control under setting [9]; 96 % of control (dose: 12.5 mg/kg/injection, schedule: Q04DX003 (ip), vehicle: saline); 94 % of control under setting [10]; 104 % of control (dose: 25.0 mg/kg/injection, schedule: Q04DX003 (ip), vehicle: saline); 111 % of control (dose: 50.0 mg/kg/injection, schedule: Q04DX003 (ip), vehicle: saline).

On to `COC1(c2cccs2)OC1(C)C` (stereo unspecified), for which the T/C under setting [5] was 95 % of control; the T/C under setting [11] was 100 % of control; the T/C under setting [6] was 95 % of control; the T/C under setting [12] is 91 % of control; the T/C under setting [13] is 95 % of control; the T/C under setting [14] is 104 % of control.

Regarding `CC1(C)CC2(C)OC2C2(C1)N=NC(=Nc1ccccc1)O2` (stereo unspecified), the T/C under setting [4] was 117 % of control.

Take `CCOC(=O)C1Cc2ccccc2OC1=O` (stereo unspecified): the T/C runs as follows: (dose: 50.0 mg/kg/injection, schedule: Q01DX005 (ip), vehicle: saline with Tween-80) 105 % of control; (dose: 100.0 mg/kg/injection, schedule: Q01DX005 (ip), vehicle: saline with Tween-80) 100 % of control; (dose: 200.0 mg/kg/injection, schedule: Q01DX005 (ip), vehicle: saline with Tween-80) 91 % of control.

In the case of `C1CC[N-]CC1.[Cl][Pt+2][Cl].[NH-]C1CC1`, the T/C is, setting by setting: (dose: 1.5 mg/kg/injection, schedule: Q01DX005 (ip), vehicle: distilled water + Tween-80) 153 % of control; (dose: 1.5 mg/kg/injection, schedule: Q01DX005 (ip), vehicle: water) 150 % of control; (dose: 3.0 mg/kg/injection, schedule: Q01DX005 (ip), vehicle: water) 164 % of control; (dose: 6.0 mg/kg/injection, schedule: Q01DX005 (ip), vehicle: distilled water + Tween-80) 157 % of control; (dose: 6.0 mg/kg/injection, schedule: Q01DX005 (ip), vehicle: water) 185 % of control; (dose: 12.0 mg/kg/injection, schedule: Q01DX005 (ip), vehicle: distilled water + Tween-80) 176 % of control. Moreover, the T/C (dose: 12.0 mg/kg/injection, schedule: Q01DX005 (ip), vehicle: water) was 192 % of control.

For the compound `CN=C1N[N+]2=C(C)CCCC2(C)S1` (stereo unspecified), the T/C under setting [10] is 100 % of control, the T/C under setting [7] is 103 % of control and the T/C under setting [8] is 99 % of control.

As for `Oc1c(Cl)cc(Cl)cc1C1N2CCCCC2C2c3cccn3-c3ccccc3N21` (stereo unspecified), the T/C by setting is: under setting [2], 93 % of control; under setting [3], 90 % of control.

For the compound `Nc1n[nH]c(N)n1.[Ni]`, the T/C was 100 % of control under setting [5]; 91 % of control under setting [11]; 95 % of control and 115 % of control under setting [6]; 87 % of control under setting [12]; 109 % of control under setting [13]; 100 % of control under setting [14].

As for `CN(C)c1ccc2nc3ccc(=[N+](C)C)cc-3sc2c1`, the T/C (dose: 2.5 mg/kg/injection, schedule: Q01DX009 (ip), vehicle: saline) was 113 % of control; the T/C (dose: 5.0 mg/kg/injection, schedule: Q01DX009 (ip), vehicle: saline) was 104 % of control; the T/C (dose: 7.2 mg/kg/injection, schedule: Q04DX003 (ip), vehicle: saline) was 110 % of control; the T/C (dose: 10.0 mg/kg/injection, schedule: Q01DX009 (ip), vehicle: saline) is 122 % of control; the T/C (dose: 10.0 mg/kg/injection, schedule: Q04DX003 (ip), vehicle: saline) was 110 % of control; the T/C (dose: 11.5 mg/kg/injection, schedule: Q04DX003 (ip), vehicle: saline) was 100 % of control. Moreover, the T/C reads like this: under setting [9], 100 % of control; (dose: 16.5 mg/kg/injection, schedule: Q01DX009 (ip), vehicle: saline) 95 % of control and 100 % of control; under setting [15], 104 % of control; under setting [10], 100 % of control and 104 % of control; (dose: 37.5 mg/kg/injection, schedule: Q01DX009 (ip), vehicle: saline) 95 % of control; (dose: 37.5 mg/kg/injection, schedule: Q04DX003 (ip), vehicle: saline) 100 % of control.

In the case of `O=C(Nc1ccccc1F)Nc1cc(Cl)ccc1Cl`, the T/C was 90 % of control (dose: 50.0 mg/kg/injection, schedule: Q04DX003 (ip), vehicle: saline sonified); 86 % of control (dose: 100.0 mg/kg/injection, schedule: Q04DX003 (ip), vehicle: saline sonified); 90 % of control (dose: 200.0 mg/kg/injection, schedule: Q04DX003 (ip), vehicle: saline sonified).

As to `CCOC(=O)CCCc1ccccc1`, the T/C under setting [11] was 113 % of control, the T/C under setting [12] was 100 % of control and the T/C under setting [14] is 100 % of control.

`CCCCCCCCCC(=O)NC(C)C(O)c1ccccc1` (stereo unspecified): the T/C under setting [4] was 109 % of control, the T/C under setting [5] was 100 % of control and the T/C under setting [6] was 89 % of control.

Turning to `Cc1nc2nc(N)[nH]c(=O)c2[nH]c1=O`, the T/C was 104 % of control under setting [5], 100 % of control under setting [6] and 109 % of control under setting [13].

In the case of `COc1cc2cc3c4ccccc4cc[n+]3c(C)c2cc1OC` (tested in a mixture with another compound), the T/C reads like this: (dose: 5.0 mg/kg/injection, schedule: Q04DX003 (ip), vehicle: saline) 101 % of control; under setting [15], 109 % of control; (dose: 40.0 mg/kg/injection, schedule: Q01DX009 (ip), vehicle: saline) 104 % of control; (dose: 80.0 mg/kg/injection, schedule: Q04DX003 (ip), vehicle: saline) 109 % of control.

With `CNc1nc2c(N)ncnc2n1C1OC(CO)C(O)C1O` (stereo unspecified), the T/C reads like this: (dose: 6.25 mg/kg/injection, schedule: Q01DX009 (ip), vehicle: saline with Tween-80) 105 % of control; under setting [1], 123 % of control.
